# Results: article PMC9821293, “Anammox Bacterial S-Adenosyl-L-Methionine Dependent Methyltransferase Crystal Structure and Its Interaction with Acyl Carrier Proteins” (International Journal of Molecular Sciences, 2023)
# Target: T1, AmxMT1 (Candidatus Brocadia fulgida, UniProt A0A0M2USF2)
# T1 construct: gene BROFUL_02287; five N-terminal residues removed; C-terminal TEV site and 6xHis tag, His tag cleaved; codon-optimised, pET28b, E. coli C43(DE3) with pGro7; one molecule in the asymmetric unit
# T1 sequence (A0A0M2USF2 6-354): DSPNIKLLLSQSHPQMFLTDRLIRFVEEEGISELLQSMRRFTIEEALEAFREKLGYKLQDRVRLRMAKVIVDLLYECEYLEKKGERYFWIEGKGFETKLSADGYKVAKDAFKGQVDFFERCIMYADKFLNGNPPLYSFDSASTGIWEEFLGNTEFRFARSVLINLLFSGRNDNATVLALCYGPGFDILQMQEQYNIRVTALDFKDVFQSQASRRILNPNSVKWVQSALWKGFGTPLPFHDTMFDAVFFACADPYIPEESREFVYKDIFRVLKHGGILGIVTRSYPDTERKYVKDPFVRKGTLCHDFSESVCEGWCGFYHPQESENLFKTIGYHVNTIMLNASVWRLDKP
# Experiment: X-ray crystal structure of the complex (SAD phasing, molecular replacement)
# Type: binding
# Conditions: SAM (2.25 mM) added for crystallization, SAH found in the crystal; 5 mM DTT; HEPES pH 7.0, PEG 2000, 20 °C; cosubstrate pocket between core domain and inserted helix
compound,measurement,value
Nc1ncnc2c1ncn2[C@@H]1O[C@H](CSCC[C@H](N)C(=O)O)[C@@H](O)[C@H]1O [SAH],"X-ray crystal structure of the complex (SAD phasing, molecular replacement)",S-adenosyl-L-homocysteine (SAH) is located in the pocket between the core domain and inserted helix
